Experiments:
[1] = Body weight in HFD-induced fatty liver rat model; format: in vivo, Male GK rats; conditions: for body weight increase compared with HFD alone: 6 weeks, HFD + drug versus HFD alone; for Body Weight, Pre: before feeding
From the text: Male GK rats (9 weeks of age, 6 rats per group) received HFD (containing 30% beef tallow) for 6 weeks.

[2] = tested on: HFD-induced fatty liver rat model; assay: Hepatic triglyceride contents in high-fat diet (HFD)-induced fatty liver rat model; format: in vivo, Male GK rats; conditions: diet mixed with 4% L-alanine for 6 weeks; one rat of 6, in the level of SD group
Procedure: It has been supposed that the increase of the amount of fat intake in the last few decades is one of the causes of the recent increase of the number of patients with NASH. Therefore, the effect of L-alanine on the hepatic triglyceride contents in the high-fat diet (hereinafter HFD)-induced fatty liver rat model.
Male GK rats (9 weeks of age, 6 rats per group) received HFD (containing 30% beef tallow) for 6 weeks. Triglyceride contents in the liver tissue was increased to 29.1 to 49.3 mg per gram of liver tissue, compared with those (14.1 to 24.2 mg) in the group fed with standard diet (containing 5% soy-been oil; hereinafter SD).
Pioglitazone is a drug, which acts as an insulin-sensitizer for the patients with diabetes. Recent clinical pilot studies raise the possibility of clinical utility of pioglitazone for NASH.
On the other hand, in the group of 6 rats received CDD mixed with 4% L-alanine for 6 weeks, one rat is reduced in the liver triglyceride contents (19.6 mg) in the level of SD group.

[3] = tested on: choline-deficient diet (CDD) rat model; assay: Choline-deficient diet (CDD) rat model of NASH-like liver change; format: in vivo, Male Wistar rats; conditions: CDD mixed with 4% L-alanine for 4 weeks
From the text: Male Wistar rats (7 weeks of age, 5 rats per group) received CDD (Dyets Co.) for 4 weeks.
On the other hand, in the group of 5 rats received CDD mixed with 4% L-alanine for 4 weeks, one rat is normalized in liver weight (10.6 g).

Question: What does the source list for CCc1ccc(CCOc2ccc(CC3SC(=O)NC3=O)cc2)nc1 (centres unmarked) [pioglitazone, reference compound]?
Answer: body weight increase compared with HFD alone [1]: significantly more increased; Body Weight, Pre ([1]; means ± SD (n = 6)): 222.1 ± 9.9 g

Question: With C[C@H](N)C(=O)O [L-alanine] as the compound, how does the “body weight increase compared with HFD alone” value [1] read?
Answer: not observed

Question: And the “Body Weight, Post (at 6 weeks)” value ([1]; after 6 weeks of HFD mixed with drug, means ± SD (n = 6))?
Answer: 331.8 ± 20.5 g

Question: And the “Body Weight, Pre” value ([1]; means ± SD (n = 6))?
Answer: 219.8 ± 13.0 g

Question: What about the liver triglyceride contents [2] of the same compound?
Answer: 19.6 mg

Question: What about the liver weight ([3]; one rat of 5 (normalized), CDD alone 14.5 to 20.0 g) of the same compound?
Answer: 10.6 g

Question: And the “histological fat accumulation in the liver” value ([3]; the one rat of 5 with normalized liver weight)?
Answer: not recognized

Reference: patent US20060089412A1, “Pharmaceutical composition for the treatment of non-alcoholic fatty liver disease” (AJINOMOTO CO. INC., priority 2004, published 2006)
